According to ChEMBL document CHEMBL4673397, “Dihydroorotate Dehydrogenase Inhibitors for Treating Acute Myelogenous Leukemia (AML)” (ACS Med Chem Lett, 2021):

What follows are compounds tested on MOLM-13 (assay: Antiproliferative activity against human MOLM-13 cells assessed as reduction in cell viability measured after 72 hrs by Celltiter-Glo assay). Conditions: MOLM-13, 72 h.
Assay type: functional, cell-based

Structure (SMILES) | IC50 [nM]
CCn1c(CO)nn(-c2cc3c(C(C)C)cn(-c4ccccc4C)c(=O)c3cc2F)c1=O | 0.2
C=C(C)c1cn(-c2c(F)ccc(OC)c2Cl)c(=O)c2cc(F)c(-n3nc(CO)n(CC)c3=O)cc12 | 0.1
CCn1c(CO)nn(-c2cc3c(C(C)C)cn(-c4c(F)cccc4Cl)c(=O)c3cc2F)c1=O | 0.2

The remaining lines, values ahead:

IC50 [nM] | Structure (SMILES)
0.1 | C=C(C)c1cn(-c2c(F)cccc2Cl)c(=O)c2cc(F)c(-n3nc(CO)n(CC)c3=O)cc12
0.3 | C=C(C)c1cn(-c2ccccc2F)c(=O)c2cc(F)c(-n3nc(CO)n(CC)c3=O)cc12
0.09 | C=C(C)c1cn(-c2cc(F)ccc2C)c(=O)c2cc(F)c(-n3nc(CO)n(CC)c3=O)cc12

Each compound was assayed against Dihydroorotate dehydrogenase (quinone), mitochondrial (Homo sapiens, UniProt Q02127) (assay: Inhibition of human DHODH (30 to 390 residues) expressed in Escherichia coli using dihydroorotate as substrate and CoQ10 as co-substrate by DCIP dye based spectrophotometry analysis). Conditions: not given.
Sequence of Dihydroorotate dehydrogenase (quinone), mitochondrial (Q02127 whole entry, the tested form may be a part): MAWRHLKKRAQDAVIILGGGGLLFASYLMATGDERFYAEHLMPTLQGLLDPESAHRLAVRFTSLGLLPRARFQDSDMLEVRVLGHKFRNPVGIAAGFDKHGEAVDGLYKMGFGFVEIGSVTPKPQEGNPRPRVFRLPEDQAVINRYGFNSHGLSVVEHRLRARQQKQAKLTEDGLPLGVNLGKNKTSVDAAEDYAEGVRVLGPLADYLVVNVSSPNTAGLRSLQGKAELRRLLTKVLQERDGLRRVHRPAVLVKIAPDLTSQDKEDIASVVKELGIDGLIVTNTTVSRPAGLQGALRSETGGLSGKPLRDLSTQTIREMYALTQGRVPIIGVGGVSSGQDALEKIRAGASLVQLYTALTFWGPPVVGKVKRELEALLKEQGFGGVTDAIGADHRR

IC50 [nM] | Structure (SMILES)
< 0.169 | C=C(C)c1cn(-c2ccccc2F)c(=O)c2cc(F)c(-n3nc(CO)n(CC)c3=O)cc12
